Values quoted from earlier work in patent US20200299317A1 (Tokuyama Corporation, priority 2018, published 2020).

Conditions: ferric citrate obtainable per Patent Literature 2

## ferric citrate
  BET specific surface area: 20 to 45 m^2/g
